Literature values, collected in patent publication US20120252695A1 (Janssen R&D Ireland, priority 2009, published 2012).

Tested on: HCV
Conditions: carriers of two copies of the advantageous IL28B variant; multi-ethnic population

## IFN-α
  patients who cleared the virus and remained virus-free 24 weeks post-treatment: approximately 80%
